Literature values in patent US10273546B2, “Method and composition for diagnosis or treatment of aggressive prostate cancer” (The Trustees of Columbia University in the City of New York, priority 2014, dated 2019).

Assays:
Apo-B = settings: animal models
[1] = human, in vivo

Q: Which results are given for Mipomersen?
A: repression of target apo-B expression (Apo-B): robust and prolonged repression; toxic effects [1]: relatively mild
